pIC50: −log10 of the molar value.
Assay: Inhibitory activity against translocase (Mra Y) obtained from bacteria.

| Structure (SMILES) | pIC50 |
| --- | --- |
| NC[C@@H]1C[C@@H](O)[C@H](OC[C@H]2O[C@@H](n3ccc(=O)[nH]c3=O)[C@H](O)[C@@H]2O)O1 | < 3.00 |
| NC[C@H]1O[C@@H](OC[C@H]2O[C@@H](n3ccc(=O)[nH]c3=O)[C@H](O)[C@@H]2O)C[C@@H]1O | 3.94 |
| NC[C@H]1O[C@@H](OC[C@@H]2CC[C@H](n3ccc(=O)[nH]c3=O)O2)[C@H](O)[C@@H]1O | 3.92 |

These reach a higher pIC50. Values come first.

| pIC50 | Structure (SMILES) |
| --- | --- |
| 5.00 | NC[C@H]1O[C@@H](OC[C@@H]2C[C@@H](O)[C@H](n3ccc(=O)[nH]c3=O)O2)[C@H](O)[C@@H]1O |
| 4.10 | NC[C@H]1O[C@@H](OC[C@H]2O[C@@H](n3ccc(=O)[nH]c3=O)C[C@@H]2O)[C@H](O)[C@@H]1O |
| 4.30 | NC[C@H]1O[C@@H](OC[C@H]2O[C@@H](n3ccc(=O)[nH]c3=O)[C@H](O)[C@@H]2O)[C@H](O)[C@@H]1O |
| 5.30 | NC[C@H]1O[C@@H](O[C@@H](CO)[C@H]2O[C@@H](n3ccc(=O)[nH]c3=O)[C@H](O)[C@@H]2O)[C@H](O)[C@@H]1O |
